Molecules are shown by their SMILES.

Here are results for two compounds from ChEMBL document CHEMBL1149094, “3-(4-Aroyl-1-methyl-1H-pyrrol-2-yl)-N-hydroxy-2-propenamides as a new class of synthetic histone deacetylase inhibitors. 3. Discovery of novel lead compounds through structure-based drug design and docking studies” (J Med Chem, 2004).

Test [1] concerns the target T1, Histone deacetylase 1 (Mus musculus, UniProt O09106). The experiment in a line: Inhibition of mouse Histone deacetylase 1 (HDAC1) receptor.
The target of test [2] is T1, Histone deacetylase 1. In words: Inhibition of mouse HDAC1.
The target in test [3] is T2, Histone deacetylase HD2 (Zea mays, UniProt Q94F81).
T2 sequence (Q94F81 whole entry): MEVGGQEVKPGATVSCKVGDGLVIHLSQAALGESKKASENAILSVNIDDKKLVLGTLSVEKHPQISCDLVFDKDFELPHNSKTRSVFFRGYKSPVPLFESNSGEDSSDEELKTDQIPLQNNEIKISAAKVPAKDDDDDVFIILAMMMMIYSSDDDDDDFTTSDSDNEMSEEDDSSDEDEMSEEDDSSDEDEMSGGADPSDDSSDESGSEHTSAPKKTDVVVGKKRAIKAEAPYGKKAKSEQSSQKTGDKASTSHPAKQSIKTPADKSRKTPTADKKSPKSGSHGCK
In words: Inhibition of maize histone deacetylase 2.

The target of test [4] is T3, Histone deacetylase HD2 (Zea mays) (UniProt Q94F81).
T3 sequence (whole entry): T2 sequence (Q94F81 whole entry)
In words: Percent inhibition of maize histone deacetylase 2 receptor at a dose of 30 uM.

The target of test [5] is T2, Histone deacetylase HD2. In words: Inhibition of maize Histone deacetylase 2.

T1 sequence (O09106 whole entry): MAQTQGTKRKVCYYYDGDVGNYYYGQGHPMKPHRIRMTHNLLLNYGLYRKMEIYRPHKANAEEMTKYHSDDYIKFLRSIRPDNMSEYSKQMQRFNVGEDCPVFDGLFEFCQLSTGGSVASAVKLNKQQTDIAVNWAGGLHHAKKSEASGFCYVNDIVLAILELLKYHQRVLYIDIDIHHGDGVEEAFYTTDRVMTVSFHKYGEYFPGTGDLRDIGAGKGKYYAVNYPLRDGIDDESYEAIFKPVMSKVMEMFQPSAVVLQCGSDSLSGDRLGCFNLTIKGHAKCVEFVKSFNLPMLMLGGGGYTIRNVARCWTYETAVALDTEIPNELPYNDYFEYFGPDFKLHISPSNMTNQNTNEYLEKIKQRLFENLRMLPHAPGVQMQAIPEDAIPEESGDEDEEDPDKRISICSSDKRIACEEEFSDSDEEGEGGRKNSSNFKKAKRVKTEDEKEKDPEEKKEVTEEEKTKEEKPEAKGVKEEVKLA

Broadly, the IC50 is the midpoint of a concentration-inhibition curve. As usually defined, the inhibition is the drop in the measured response relative to a control, in per cent. A high value points to strong suppression. With `Cn1cc(/C=C/C(=O)NO)cc1C(=O)c1ccccc1`, the IC50 is 780 nM at Histone deacetylase 1 [1], 776 nM on Histone deacetylase 1 [2], 50 nM at Histone deacetylase HD2 [3] and 50.1 nM against Histone deacetylase HD2 [5]. Besides, the inhibition in test [4] was found to be 97%.

Consider `Cn1c(/C=C/C(=O)NO)ccc1C(=O)c1ccccc1`, for which the IC50 against Histone deacetylase 1 [1] is 250 nM; at Histone deacetylase 1 [2] it was 229 nM; against Histone deacetylase HD2 [3], 280 nM; at Histone deacetylase HD2 [5], 251 nM. Further, in test [4], the inhibition came out at 95%.
